The source of these data is patent US20080160006A1, “Nutrient Medium for Maintaining Neural Cells in Injured Nervous System” (priority 2001, published 2008).

One test relates to human neurons. In words: Survival of human neurons versus FGF2 concentration with or without DHEAS (FIG. 1). The class given is cell-based. From the text:
(§1) GENERAL METHODS. Brain tissue was ethically obtained by informed consent from patients before surgery under protocols approved by the Springfield Committee for Research on Human Subjects and the UC Irvine IRB. […] Rather than using aspiration to remove all tissue, slices of tissue 1-3 mm thick were obtained from cortical access ports or tissue that was marginal to the lesion. Use of electrocautery was kept to a minimum to reduce oxyradicals and other neuron damage. […] Hibernate A contains D-glucose, pyruvate, balanced salts, amino acids, and vitamins. B27 contains 5 antioxidants and 15 other components. […] After transport on ice to a laminar flow sterile hood in the culture laboratory, meninges and white matter were removed from the tissue with a scalpel and forceps in a 35 mm dish in 2 ml transport medium. […] The cell suspension was enriched for neurons by centrifugation on a density gradient of Optiprep (Invitrogen). […] The diluted Optiprep was further diluted with transport medium (v/v) to make a gradient containing 4 steps of 1 ml in a 15 ml centrifuge tube: bottom (0.35:0.65), 0.25:0.75, 0.2:0.8, top (0.15:0.85). Up to 6 ml of cell suspension was layered over the Optiprep step gradient. […] Cells were plated at a density of 320/mm^2 onto glass coverslips coated with polylysine as previously described. Cells were cultured in Neurobasal™ A medium (Invitrogen) with 2 percent B27, 5 ng/ml FGF2 (basic human recombinant fibroblast growth factor, Invitrogen) and 0.5 mM glutamine in a humidified atmosphere of 9 percent O2, and 5 percent CO2 (Forma, Marietta, Ohio). […] EGF (20 ng/ml; murine, Invitrogen) and NT3 (100 ng/ml; recombinant, Regeneron) were added as indicated from 500× stock solutions in 1 percent BSA/PBS. Half of the medium was replaced with fresh medium every 3-4 days.

Test [1] deals with human cortical brain cells (neurons vs glia). In words: Adult human cortical brain cells cultured in B27/Neurobasal A, immunostained for neurofilament and GFAP. The class given is cell-based. Conditions: for % GFAP (mean ± S.D.) / % Neurofilament (mean ± S.D.): addition to B27/Neurobasal A, after 6 days.
Excerpt: as §1
For immunocytology, cultures were rinsed twice in warm PBS and fixed for 10 minutes in 4 percent paraformaldehyde in PBS. After rinsing twice with PBS, cells for GFAP staining were postfixed for 20 minutes in acetic acid/ethanol (1:9, v/v) before rinsing again with PBS. Non-specific sites were blocked, and cells were permeabilized for 5 minutes in 5 percent normal goat serum, and 0.5 percent Triton X-100. Cells were incubated with primary antibodies for 1 hour at 22° C. in 5 percent goat serum, and 0.05 percent Triton as follows: mouse anti-neurofilament 200 (1:40, Sigma) with rabbit anti-cow GFAP (1:2000, Dako), or mouse anti-MAP2 (1:250, Boeringer-Mannheim) with rabbit anti-tau (1:2000). After rinsing four times with PBS, cells were incubated 1 hour at 22° C. with a rhodamine-conjugate of goat anti-rabbit IgG (heavy+light chain, 1:500, Tago) together with a cy2-conjugate of goat anti-mouse IgG (heavy+light chain, 1:100, Jackson). After rinsing four times in PBS, coverslips were mounted with Aquamount and imaged through a Nikon 60×/1.4 objective using a Spot cooled CCD camera (Diagnostic Instruments).
Human cortical brain tissue was obtained for culture from eleven consecutive surgical cases, including seven tumor cases, three cases of epilepsy, and one case of suprabulbar palsy. Patients ranged in age from 41 to 70 years.
Neuronal Characteristics of Isolated Cells. Cytoskeletal components were used as specific markers to distinguish neurons from glia. Microtubule associated proteins, MAP2 and tau, are generally associated with somatodendritic and axonal regions of neurons, respectively. Neurofilament 200 is a common intermediate filament protein restricted to neurons, and GFAP is restricted to astroglia. All preparations were immunostained for at least one of these markers.

The mark [2] stands for this setting: surgical sample 1, glioma r. temporal, 46 M.
Where [3] appears, read: surgical sample 2, tumor r. temporal, 69 M.

Take `C[C@]12CC[C@H](OS(=O)(=O)O)CC1=CC[C@@H]1[C@@H]2CC[C@]2(C)C(=O)CC[C@@H]12` [DHEAS, dehydroepiandrosterone 3-sulphate]: the “lowering of the FGF2 ED50 for survival” value in the test with human neurons (DHEAS at 10 μg/ml) amounted to 10 fold. Moreover, in the test with human neurons (DHEAS at 1 and 3 μg/ml, data not shown), the “survival at intermediate DHEAS concentrations” value was “intermediate survival between 0 and 10 μg/ml”. Besides, in the test on human neurons (lower FGF2 concentrations), the “survival with FGF2 at lower concentrations (FIG. 1)” value is recorded as “synergistic for survival with FGF2”.
Consider “EGF: trophic factor EGF, murine, Invitrogen (NSYPGCPSSYDGYCLNGGVCMHIESLDSYTCNCVIGYSGDRCQTRDLRWWELR; Epidermal growth factor; UniProt P01132 977-1029, looked up)”, for which the “survival of neurofilament positive cells versus FGF2 alone” value in test [1] (added in addition to FGF2, sample 4) is “no more efficacious”.
On to “FGF2: basic human recombinant fibroblast growth factor, Invitrogen”, for which the “% GFAP (mean ± S.D.)” value in test [1] (setting [2]) is 30 ± 7%; in test [1] (setting [3]), more than 80%. Further, the “% Neurofilament (mean ± S.D.)” value in test [1] (setting [2]) is listed as 67±7%; in test [1] (setting [3]) it was less than 10%; in test [1] (surgical sample 3, glioma l. frontal, 41 M) it was 84 ± 8%; in test [1] (surgical sample 4, epilepsy l. superior temp. gyrus, 33 F), 16 ± 5%; in test [1] (surgical sample 5, meningioma r. temporal, 70 µM), 17 ± 10%.
